pIC50: −log10 of the molar value.
Biological target: T1, 5 HT2C receptor (Homo sapiens, UniProt P28335)
T1 sequence (P28335 33-458): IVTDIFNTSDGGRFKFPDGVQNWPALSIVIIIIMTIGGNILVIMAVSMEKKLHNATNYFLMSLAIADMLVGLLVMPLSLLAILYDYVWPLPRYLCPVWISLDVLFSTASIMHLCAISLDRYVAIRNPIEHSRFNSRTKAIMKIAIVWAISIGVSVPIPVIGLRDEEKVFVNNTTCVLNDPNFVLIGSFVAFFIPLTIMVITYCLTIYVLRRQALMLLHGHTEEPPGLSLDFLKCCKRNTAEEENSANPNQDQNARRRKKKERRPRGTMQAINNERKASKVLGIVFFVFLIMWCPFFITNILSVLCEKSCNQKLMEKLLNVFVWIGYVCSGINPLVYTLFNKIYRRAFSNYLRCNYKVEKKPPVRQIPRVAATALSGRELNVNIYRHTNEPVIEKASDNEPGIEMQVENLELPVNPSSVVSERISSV
Assay: affinity to the 5 HT2C receptor
Type: binding
Details: not given

| SMILES | pIC50 |
| --- | --- |
| CN1CCN(Cc2cnn(-c3ccc(-n4cccc4)cc3)c2-c2ccccc2F)CC1 [Example 909, 1-[5-(2-Fluorophenyl)-1-(4-pyrrol-1-ylphenyl)-1H-pyrazol-4-ylmethyl]-4-methylpiperazine] | 6.68 |
| Fc1ccccc1-c1c(CN2CCCC2)cnn1-c1ccc(-c2ccccc2)cc1 [Example 934, 1-Biphenyl-4-yl-5-(2-fluorophenyl)-4-pyrrolidin-1-ylmethyl-1H-pyrazole] | 6.00 |
| Fc1ccccc1-c1c(CCN2CCOCC2)cnn1-c1ccc(-c2ccccc2)cc1 [Example 898, 4-{2-[1-Biphenyl-4-yl-5-(2-fluoro-phenyl)-1H-pyrazol-4-yl]ethyl}morpholine] | 6.00 |
| COc1ccccc1-c1c(CN2CCN(C)CC2)cnn1-c1ccc(-c2ccsc2)cc1 [Example 1055, 1-[5-(2-Methoxyphenyl)-1-(4-thiophen-3-yl-phenyl)-1H-pyrazol-4-ylmethyl]-4-methyl-piperazine] | 6.52 |
| CN1CCN(Cc2cnn(-c3ccc(-c4ccccc4F)cc3)c2-c2ccccc2F)CC1 [Example 976, 1-[1-(2′-Fluorobiphenyl-4-yl)-5-(2-fluoro-phenyl)-1H-pyrazol-4-ylmethyl]-4-methyl-piperazine] | 6.43 |
| CCN1CCN(Cc2cnn(-c3ccc(-c4ccc(F)cc4)cc3)c2-c2ccccc2Cl)CC1 [Example 975, 1-[5-(2-Chlorophenyl)-1-(4′-fluoro-biphenyl-4-yl)-1H-pyrazol-4-ylmethyl]-4-ethylpiperazine] | 6.00 |

Biological target: 5-HT2A receptors (Rattus norvegicus, UniProt P14842)
Assay: in-vitro affinity to 5-HT2A receptors, displacement of [3H]ketanserine (Example A1)
Type: binding
Details: read-out: HT2A IC50
Text: The 5-HT2A receptors are exposed both to [^3H]ketanserine (a substance which is known for its affinity to the receptor) and also to the test compound. The decrease in the affinity of [^3H]ketanserine to the receptor is an indication of the affinity of the test substance to the 5-HT2A receptor.

Sequence of 5-HT2A receptors (P14842 whole entry): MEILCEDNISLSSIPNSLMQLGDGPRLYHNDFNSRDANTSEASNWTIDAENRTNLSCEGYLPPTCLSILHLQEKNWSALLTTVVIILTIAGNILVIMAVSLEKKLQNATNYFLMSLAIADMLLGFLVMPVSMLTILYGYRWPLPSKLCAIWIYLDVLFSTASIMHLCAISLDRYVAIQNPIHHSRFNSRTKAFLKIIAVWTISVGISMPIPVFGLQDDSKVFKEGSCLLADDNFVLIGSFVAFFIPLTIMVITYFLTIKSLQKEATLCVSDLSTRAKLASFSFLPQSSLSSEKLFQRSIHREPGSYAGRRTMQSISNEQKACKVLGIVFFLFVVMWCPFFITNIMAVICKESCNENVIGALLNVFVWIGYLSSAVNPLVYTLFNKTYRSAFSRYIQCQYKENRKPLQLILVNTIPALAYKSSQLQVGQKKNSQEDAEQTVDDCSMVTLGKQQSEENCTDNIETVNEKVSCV

| pIC50 | SMILES |
| --- | --- |
| 6.33 | OCCc1cnn(-c2ccc(-c3ccccc3)cc2)c1-c1ccccc1F [Example 1059, 2-[1-Biphenyl-4-yl-5-(2-fluoro-phenyl)-1H-pyrazol-4-yl]ethanol] |
| 6.55 | Fc1ccccc1-c1c(CN2CCN3CCc4ccccc4C3C2)cnn1-c1ccc(-c2ccccc2)cc1 (centres unmarked) [Example 1031, 2-[1-Biphenyl-4-yl-5-(2-fluorophenyl)-1H-pyrazol-4-ylmethyl]-1,3,4,6,7,11b-hexahydro-2H-pyrazino[2,1-a]isoquinoline] |
| 7.14 | Cc1ccccc1-c1c(CN2CCN(C)CC2)cnn1-c1ccc(-c2ccc(F)cc2)cc1 [Example 966, 1-[1-(4′-Fluorobiphenyl-4-yl)-5-o-tolyl-1H-pyrazol-4-ylmethyl]-4-methyl-piperazine] |
| 6.77 | CN1CCN(Cc2cnn(-c3ccc(-c4cccnc4)cc3)c2-c2ccccc2F)CC1 [Example 1000, 1-[5-(2-Fluorophenyl)-1-(4-pyridin-3-ylphenyl)-1H-pyrazol-4-ylmethyl]-4-methylpiperazine] |
| 7.16 | CN1CCN(Cc2cnn(-c3ccc(-c4cccc(Cl)c4)cc3)c2-c2ccccc2F)CC1 [Example 963, 1-[1-(3′-Chlorobiphenyl-4-yl)-5-(2-fluoro-phenyl)-1H-pyrazol-4-ylmethyl]-4-methyl-piperazine] |
| 6.70 | c1ccc(-c2ccc(-n3ncc(CN4CCNCC4)c3-c3ccccn3)cc2)cc1 [Example 1009, 1-(1-Biphenyl-4-yl-5-pyridin-2-yl-1H-pyrazol-4-ylmethyl)piperazine] |
| 6.92 | CN1CCN(Cc2cnn(-c3ccc(-c4ccccc4Cl)cc3)c2-c2ccccc2F)CC1 [Example 984, 1-[1-(2′-Chlorobiphenyl-4-yl)-5-(2-fluoro-phenyl)-1H-pyrazol-4-ylmethyl]-4-methyl-piperazine] |
| 7.44 | Fc1ccccc1-c1c(CN2CC=CC2)cnn1-c1ccc(-c2ccccc2)cc1 [Example 939, 1-Biphenyl-4-yl-4-(2,5-dihydropyrrol-1-yl-methyl)-5-(2-fluorophenyl)-1H-pyrazole] |

Second part, the compound before the results:

| SMILES | pIC50 |
| --- | --- |
| CN1CCN(Cc2cnn(-c3ccc(-n4cccc4)cc3)c2-c2ccccc2F)CC1 [Example 909, 1-[5-(2-Fluorophenyl)-1-(4-pyrrol-1-ylphenyl)-1H-pyrazol-4-ylmethyl]-4-methylpiperazine] | 7.77 |
| Fc1ccccc1-c1c(CN2CCCC2)cnn1-c1ccc(-c2ccccc2)cc1 [Example 934, 1-Biphenyl-4-yl-5-(2-fluorophenyl)-4-pyrrolidin-1-ylmethyl-1H-pyrazole] | 7.49 |
| Fc1ccccc1-c1c(CCN2CCOCC2)cnn1-c1ccc(-c2ccccc2)cc1 [Example 898, 4-{2-[1-Biphenyl-4-yl-5-(2-fluoro-phenyl)-1H-pyrazol-4-yl]ethyl}morpholine] | 7.92 |
| COc1ccccc1-c1c(CN2CCN(C)CC2)cnn1-c1ccc(-c2ccsc2)cc1 [Example 1055, 1-[5-(2-Methoxyphenyl)-1-(4-thiophen-3-yl-phenyl)-1H-pyrazol-4-ylmethyl]-4-methyl-piperazine] | 6.34 |
| CN1CCN(Cc2cnn(-c3ccc(-c4ccccc4F)cc3)c2-c2ccccc2F)CC1 [Example 976, 1-[1-(2′-Fluorobiphenyl-4-yl)-5-(2-fluoro-phenyl)-1H-pyrazol-4-ylmethyl]-4-methyl-piperazine] | 7.03 |
| CCN1CCN(Cc2cnn(-c3ccc(-c4ccc(F)cc4)cc3)c2-c2ccccc2Cl)CC1 [Example 975, 1-[5-(2-Chlorophenyl)-1-(4′-fluoro-biphenyl-4-yl)-1H-pyrazol-4-ylmethyl]-4-ethylpiperazine] | 7.06 |
| Fc1ccccc1-c1c(CNCc2cccnc2)cnn1-c1ccc(-c2ccccc2)cc1 [Example 1004, [1-Biphenyl-4-yl-5-(2-fluorophenyl)-1H-pyrazol-4-ylmethyl]pyridin-3-ylmethylamine] | 6.74 |
| Fc1ccccc1-c1c(CN2CCN(Cc3ccsc3)CC2)cnn1-c1ccc(-c2ccccc2)cc1 [Example 1047, 1-[1-Biphenyl-4-yl-5-(2-fluorophenyl)-1H-pyrazol-4-ylmethyl]-4-thiophen-3-ylmethyl-piperazine] | 6.42 |
| CC(C)(C)OC(=O)N1CCC(NCc2cnn(-c3ccc(-c4ccccc4)cc3)c2-c2ccccc2F)C1 (centres unmarked) [Example 1056, tert-Butyl 3-{[1-biphenyl-4-yl-5-(2-fluoro-phenyl)-1H-pyrazol-4-ylmethyl]amino}pyrrolidine-1-carboxylate] | 6.34 |
| CCOC(=O)N1CCC(N(C)Cc2cnn(-c3ccc(-c4ccccc4)cc3)c2-c2ccccc2F)CC1 [Example 999, Ethyl 4-{[1-biphenyl-4-yl-5-(2-fluorophenyl)-1H-pyrazol-4-ylmethyl]methylamino}piperidine-1-carboxylate] | 6.77 |
| Fc1ccc(-c2ccc(-n3ncc(CN(Cc4cnn(-c5ccc(-c6ccc(F)cc6)cc5)c4-c4ccco4)C4CC4)c3-c3ccco3)cc2)cc1 [Example 982, Cyclopropylbis-[1-(4′-fluorobiphenyl-4-yl)-5-furan-2-yl-1H-pyrazol-4-ylmethyl]amine] | 6.96 |
| Cc1ccc(-c2ccc(-n3ncc(CN4CCN(C)CC4)c3-c3ccccc3F)cc2)c(F)c1F [Example 959, 1-[1-(2′,3′-Difluoro-4′-methylbiphenyl-4-yl)-5-(2-fluorophenyl)-1H-pyrazol-4-ylmethyl]-4-methylpiperazine] | 7.22 |
| CN1CCN(Cc2cnn(-c3ccc(-c4ccc(F)cc4)cc3)c2-c2cccc(F)c2)CC1 [Example 911, 1-[1-(4′-Fluorobiphenyl-4-yl)-5-(3-fluoro-phenyl)-1H-pyrazol-4-ylmethyl]-4-methyl-piperazine] | 7.72 |

Same assay, conditions: target not given; description names affinity to 5-HT2A receptors; read-out: IC50

| pIC50 | SMILES |
| --- | --- |
| 6.09 | CN1CCN(Cc2cnn(-c3ccc(-c4ccccc4F)cc3)c2-c2ccccc2)CC1 [(96), 1-[1-(2′-Fluorobiphenyl-4-yl)-5-phenyl-1H-pyrazol-4-ylmethyl]-4-methylpiperazine] |
| 6.70 | c1ccc(-c2ccc(-n3ncc(CN4CCNCC4)c3-c3ccccn3)cc2)cc1 [(60), 1-(1-Biphenyl-4-yl-5-pyridin-2-yl-1H-pyrazol-4-ylmethyl)-piperazine] |
| 6.70 | O=c1ccccn1Cc1cnn(-c2ccc(-c3ccccc3)cc2)c1-c1ccccc1F [(191), 1-[1-Biphenyl-4-yl-5-(2-fluorophenyl)-1H-pyrazol-4-ylmethyl]-1H-pyridin-2-one] |

Further lines, the compound ahead of its results:

| SMILES | pIC50 |
| --- | --- |
| Fc1ccccc1-c1c(CNC2CN3CCC2CC3)cnn1-c1ccc(-c2ccccc2)cc1 (centres unmarked) [(107), (1-Azabicyclo[2.2.2]oct-3-yl)-[1-biphenyl-4-yl-5-(2-fluorophenyl)-1H-pyrazol-4-ylmethyl]amine] | 6.85 |
| CC(=O)NC1CCN(Cc2cnn(-c3ccc(-c4ccccc4)cc3)c2-c2ccccc2F)C1 (centres unmarked) [(50), N-{1-[1-Biphenyl-4-yl-5-(2-fluorophenyl)-1H-pyrazol-4-ylmethyl]pyrrolidin-3-yl}acetamide] | 7.54 |
| O=C(CNCc1cnn(-c2ccc(-c3ccccc3)cc2)c1-c1ccccc1F)Nc1ccc([N+](=O)[O-])cc1 [(129), 2-{[1-Biphenyl-4-yl-5-(2-fluorophenyl)-1H-pyrazol-4-ylmethyl]-amino}-N-(4-nitrophenyl)acetamide] | 7.00 |
| CN1CCN(Cc2cnn(-c3ccc(-c4ccc(F)cc4)nc3)c2-c2ccccc2F)CC1 [(116), 1-{5-(2-Fluorophenyl)-1-[6-(4-fluorophenyl)pyridin-3-yl]-1H-pyrazol-4-ylmethyl}-4-methylpiperazine] | 6.92 |
| OCC(Cc1cnc[nH]1)NCc1cnn(-c2ccc(-c3ccccc3)cc2)c1-c1ccccc1F (centres unmarked) [(137), 2-{[1-Biphenyl-4-yl-5-(2-fluorophenyl)-1H-pyrazol-4-ylmethyl]-amino}-3-(3H-imidazol-4-yl)propan-1-ol] | 6.43 |
| Fc1ccccc1-c1c(CCN2CCOCC2)cnn1-c1ccc(-c2ccccc2)cc1 [(185), 4-{2-[1-Biphenyl-4-yl-5-(2-fluorophenyl)-1H-pyrazol-4-yl]ethyl}morpholine] | 7.40 |
| CCN(Cc1ccccc1)Cc1cnn(-c2ccc(-c3ccccc3)cc2)c1-c1ccccc1F [(32), Benzyl-[1-biphenyl-4-yl-5-(2-fluorophenyl)-1H-pyrazol-4-ylmethyl]ethylamine] | 6.49 |
| NC(=O)C1CCCN1Cc1cnn(-c2ccc(-c3ccccc3F)nc2)c1-c1ccccc1F (centres unmarked) [(145), 1-{5-(2-Fluorophenyl)-1-[6-(2-fluorophenyl)pyridin-3-yl]-1H-pyrazol-4-ylmethyl}pyrrolidine-2-carboxamide] | 6.66 |
| CC(C)(C)OC(=O)CNCc1cnn(-c2ccc(-c3ccccc3)cc2)c1-c1cccnc1 [(179), tert-Butyl [(1-biphenyl-4-yl-5-pyridin-3-yl-1H-pyrazol-4-ylmethyl)amino]acetate] | 6.00 |
| Fc1ccc(F)c(-c2ccc(-n3ncc(CNc4cc[nH]n4)c3-c3ccccc3F)cc2)c1 [(140), [1-(2′,5′-Difluorobiphenyl-4-yl)-5-(2-fluorophenyl)-1H-pyrazol-4-ylmethyl]-(1H-pyrazol-3-yl)amine] | 6.74 |
| O=C(O)CNCc1cnn(-c2ccc(-c3ccccc3)cc2)c1-c1ccccc1F [(29), {[1-Biphenyl-4-yl-5-(2-fluorophenyl)-1H-pyrazol-4-ylmethyl]-amino}acetic acid] | 5.77 |

Source: patent publication US20060264419A1 (priority 2003, published 2006)
